# Assay results as given in patent US10703740B2, “Substituted benzimidazoles, their preparation and their use as pharmaceuticals” (NEOMED Institute, priority 2015, dated 2020).
# Test system: human C-Myc transcription in MV-4-11 cells
# Test: Transcription of human C-Myc in human leukemic MV-4-11 cells (QuantiGene 2.0)
# Assay type: cell-based
# Conditions: Homo sapiens, MV4-11, 4 h, inhibition of C-Myc mRNA, 4 hours treatment, read-out: IC50 MV-4-11 Cell
# Procedure: The effect of compounds on transcription of human C-Myc gene is monitored in human B-myelomonocytic leukemia cell line MV-4-11 (from American Type Culture Collection (ATCC), Manassas, Va., USA) using QuantiGene 2.0 assay kit (Affymetrix, Santa Clara, Calif., USA).
# Typically, 8,000 MV-4-11 cells are plated in sterile 96-well plates (Costar #3598 from Fisher Scientific Canada, Ottawa, Ontario, Canada) in Iscove's medium supplemented with 10% fetal bovine serum, glutamine (2 mM), and penicillin (100 I.U.) and streptomycin (100 μg/mL) (all from Wisent Inc., St. Bruno, Quebec, Canada). Compounds are dissolved in DMSO at 30 mM. A series of 1:3 dilutions are first made in DMSO, and further 1:100 dilutions are made in serum-containing cell culture media. The final concentration of DMSO is 0.1% in cell culture media. After cells are treated with various concentrations of test compound for 4 hours, cells are lysed using Quantigene 2.0 sample processing kit (# QS0100). C-Myc mRNA is detected using a QuantiGene 2.0 assay kit (# QS0009) with gene-specific probe to human C-Myc (# SA-50182) following the manufacturer's recommendations. Luminescene signals are read on Flexstation II microplate reader (Molecular Devices, Sunnyvale, Calif., USA).
row,Compound,IC50 [nM]
1,"Cn1cc(-c2ccc3nc(C4CC4)n(CCOC(F)(F)F)c3c2)cc(C2CC2)c1=O [Compound 19, 3-cyclopropyl-5-[2-cyclopropyl-3-[2-(trifluoromethoxy)ethyl]benzimidazol-5-yl]-1-methylpyridin-2-one]",870
2,"CCO[C@@H](C)Cn1c(C2CC(F)(F)C2)nc2ccc(-c3cc(C)c(=O)n(C)c3)cc21 [Compound 53, (S)-5-(2-(3,3-difluorocyclobutyl)-1-(2-ethoxypropyl)-1H-benzo[d]imidazol-6-yl)-1,3-dimethylpyridin-2(1H)-one]",76
3,"COC(C)Cn1cnc2ccc(-c3cc(C)c(=O)n(C)c3)cc21 (stereo not drawn) [Compound 22a, 5-[3-(2-methoxypropyl)benzimidazol-5-yl]-1,3-dimethylpyridin-2-one]",840
4,"CCc1cc(-c2ccc3nc(C4CC4)n(CCOC(F)(F)F)c3c2)cn(C)c1=O [Compound 14, 5-(2 cyclopropyl-3-(2-(trifluoromethoxy)ethyl)benzimidazol-5-yl)-3-ethyl-1-methylpyridin-2-one]",250
5,CO[C@H]1C[C@H](c2nc3ccc(-c4cc(C)c(=O)n(C)c4)cc3n2CCOC(F)(F)F)C1 [Compound 28a],50
6,"COC[C@H](C)n1c(C2CCC(F)(F)CC2)nc2ccc(-c3cc(C)c(=O)n(C)c3)cc21 [Compound 56, (S)-5-(2-(4,4-difluorocyclohexyl)-1-(1-methoxypropan-2-yl)-1H-benzo[d]imidazol-6-yl)-1,3-dimethylpyridin-2(1H)-one]",220
7,"CCO[C@H](C)Cn1c(C2CC(F)(F)C2)nc2ccc(-c3cc(C)c(=O)n(C)c3)cc21 [Compound 54, (R)-5-(2-(3,3-difluorocyclobutyl)-1-(2-ethoxypropyl)-1H-benzo[d]imidazol-6-yl)-1,3-dimethylpyridin-2(1H)-one]",170
8,"Cc1cc(-c2ccc3nc(C4CC4)n(CCOCC(F)(F)F)c3c2)cn(C)c1=O [Compound 45, 5-(2-cyclopropyl-1-(2-(2,2,2-trifluoroethoxy)ethyl)-1H-benzo[d]imidazol-6-yl)-1,3-dimethylpyridin-2(1H)-one]",160
9,"COC[C@@H](C)n1c(CC2CCOCC2)nc2ccc(-c3cc(C)c(=O)n(C)c3)cc21 [Compound 50, (R)-5-(1-(1-methoxypropan-2-yl)-2-((tetrahydro-2H-pyran-4-yl)methyl)-1H-benzo[d]imidazol-6-yl)-1,3-dimethylpyridin-2(1H)-one]",160
10,"COC[C@@H](C)n1c(C(F)(F)F)nc2ccc(-c3cc(C)c(=O)n(C)c3)cc21 [Compound 26, 5-[3-[(1R)-2-methoxy-1-methyl-ethyl]-2-(trifluoromethyl)benzimidazol-5-yl]-1,3-dimethylpyridin-2-one]",230
11,"COC[C@H](C)n1c(C2CC2)nc2ccc(-c3cc(C)c(=O)n(C)c3)cc21 [Compound 17, 5-[2-cyclopropyl-3-[(1S)-2-methoxy-1-methylethyl]benzimidazol-5-yl]-1,3-dimethyl pyridin-2-one]",810

# Same assay, conditions: inhibition of C-Myc mRNA, 4 hours treatment, read-out: IC50 MV-4-11 Cell
row,Compound,IC50 [nM]
1,"COC(C)Cn1c(C2CCOCC2)nc2ccc(-c3cc(C)c(=O)n(C)c3)cc21 (single isomer, unassigned) [Compound 35b, 5-[3-(2-methoxypropyl)-2-tetrahydropyran-4-yl-benzimidazol-5-yl]-1,3-dimethyl pyridin-2-one]",86
2,"COC(C)Cn1c(C2CC2)nc2ccc(-c3cc(C)c(=O)n(C)c3)cc21 (single isomer, unassigned) [Compound 23a, 5-[2-cyclopropyl-3-(2-methoxypropyl)benzimidazol-5-yl]-1,3-dimethylpyridin-2-one]",250
3,"5-[2-(3-methoxycyclobutyl)-1-(2-(2,2,2-trifluoroethoxy)ethyl)-1H-benzo[d]imidazol-6-yl]-1,3-dimethylpyridin-2(1H)-one [Compound 63]",17
4,"COC(C)Cn1cnc2ccc(-c3cc(C)c(=O)n(C)c3)cc21 (stereo not drawn) [Compound 22b, 5-[3-(2-methoxypropyl)benzimidazol-5-yl]-1,3-dimethylpyridin-2-one]",780
